Results as given in publication PMC4421842 (Nature Communications, 2015).
In brackets after ≈: the same amount, converted by molar mass. Several values for one entry are separate records, joined by “and”; a condition that tells them apart may be missing. Equal values may be shown once. Read-outs that look alike come from different tables or passages of the source.

Key:
MRSA clinical isolates = test: microbe, parasite or virus in culture; type: cell-based, S. aureus; conditions: Staphylococcus aureus, MRSA, read-out: MIC
Method: MRSA and P. aeruginosa isolates were from Cubist Pharmaceuticals (Lexington, MA). VRE isolates were from a previously published collection. E. coli strains were obtained either from ATCC or Professor Cari Vanderpool (UIUC). A. baumannii isolates were obtained from Dr John Quale[51].
Susceptibility testing was performed in triplicate, using the microdilution broth method as outlined by the Clinical and Laboratory Standards Institute[52]. Mueller Hinton (MH) broth was used.

[1] = system: WT S. aureus (ATCC 29213, WT); test: microbe, parasite or virus in culture; type: cell-based; conditions: for MIC against S. aureus 29213: ATCC 29213; for MIC: Staphylococcus aureus
[2] = system: FQR S. aureus (NRS3, FQR); test: MIC, microdilution broth assay, FQR MRSA NRS3; type: cell-based; conditions: for MIC: Staphylococcus aureus
[3] = Pharmacokinetic assessment; type: in vivo, C57BL/6 mice
Method: (§1) The animal studies (PK, in-vivo toxicity and in-vivo efficacy) were carried out in strict accordance with the recommendations in the Guide for the Care and Use of Laboratory Animals of the National Institutes of Health. […] In these studies, 10- to 12-week-old female C57BL/6 mice purchased from Charles River were used. DNM, DNM-2 and DNM-3 were formulated as slurries at 8.3 mg ml^−1 in 25% Cremophor RH40/water (v/v). Before beginning the pharmacokinetic assessment, mice were first tested for their ability to tolerate the DNM, DNM-2 and DNM-3 at 50 mg kg^−1 (p.o.). […] At specified time points, mice were killed and blood was collected, centrifuged and the serum was frozen at −80 °C until analysis. The proteins in a 50-μl aliquot of serum were precipitated by the addition of 50 μl of acetonitrile and the sample was centrifuged to remove the proteins. Serum concentrations of DNM, DNM-2 and DNM-3 were determined by HPLC. PK parameters were determined using GraphPad Prism Version 5.00 for Windows.

[4] = Tolerability in mice (maximal tolerated dose); type: in vivo; conditions: increasing doses, highest dose evaluated 50 mg kg^−1 by oral gavage
Method: as §1

physchem = conditions: pH 7.4
Method: Three independent replicates of each compound were performed.

[5] = WT GyrA and WT ParC, three independent replicates
[6] = ATCC29213, ATCC 29213, WT GyrA and WT ParC, three independent replicates, read-out: MIC against S. aureus 29213
[7] = NRS3, S84L GyrA and S80F ParC, three independent replicates
[8] = female, C57BL/6, mouse, in vivo, C57/BL6 mice, 50 mg kg-1 oral gavage, serum
[9] = NRS3, S84L GyrA and S80F ParC, three independent replicates, read-out: MIC against S. aureus NRS3

SMILES: CC1(C)S[C@@H]2[C@H](NC(=O)[C@H](N)c3ccccc3)C(=O)N2[C@H]1C(=O)O [Amp, Ampicillin, reference compound]
- MIC (MRSA clinical isolates; strain SAU.1118): > 64 µg/mL
- MIC (MRSA clinical isolates; strain SAU.3024): > 64 µg/mL
- MIC (MRSA clinical isolates; strain SAU.3025): 64 µg/mL (≈ 183 µM)
- MIC (MRSA clinical isolates; strain SAU.419): > 64 µg/mL
- MIC (MRSA clinical isolates; strain SAU.42): 2 µg/mL (≈ 5.72 µM)
- MIC (MRSA clinical isolates; strain SAU.446): > 64 µg/mL
- MIC (MRSA clinical isolates; strain SAU.447): > 64 µg/mL
- MIC (MRSA clinical isolates; strain SAU.555): > 64 µg/mL

SMILES: CCc1cc(=O)n2c3c(c4c(cc13)c(C)cc(=O)n4C)OC2 [DNM-3]
- MIC against S. aureus 29213 [1, 5]: 8 µg/mL (≈ 27 µM)
- MIC [1, 6]: 8 µg/mL (≈ 27 µM)
- MIC against S. aureus NRS3 [2, 7]: 0.12 µg/mL (≈ 0.405 µM)
- AUC [3, 8]: 4000 ng·h/mL
- Tmax [3, 8]: 1.1 h
- half-life [3, 8]: 1.2 h
- Cmax ([3]; female, C57BL/6, mouse, mice, 50 mg kg^−1 oral dose, serum, read-out: Cmax (peak serum concentration)): 4.3 µM and 1260 ng/mL
- oral bioavailability / serum exposure ([3]; mice, 50 mg kg^−1 oral dose): intermediate level of bioavailability
- area under the curve ([3]; mice, 50 mg kg^−1 oral dose, serum): 4000 ng·h/mL
- tolerability [4]: well tolerated up to the highest dose evaluated
- solubility at 1 h (physchem): 27 µM (≈ 8 µg/mL)

SMILES: CO[C@@H]1[C@@H](OC(N)=O)[C@@H](O)[C@H](Oc2ccc3c(O)c(NC(=O)c4ccc(O)c(CC=C(C)C)c4)c(=O)oc3c2C)OC1(C)C [Novo, Novobiocin, reference compound]
- MIC (MRSA clinical isolates; strain SAU.1118): 0.5 µg/mL (≈ 0.816 µM)
- MIC (MRSA clinical isolates; strain SAU.3017): 0.5 µg/mL (≈ 0.816 µM)
- MIC (MRSA clinical isolates; strain SAU.3021): 0.25 µg/mL (≈ 0.408 µM)
- MIC (MRSA clinical isolates; strain SAU.419): 0.25 µg/mL (≈ 0.408 µM)
- MIC (MRSA clinical isolates; strain SAU.42): 0.5 µg/mL (≈ 0.816 µM)
- MIC (MRSA clinical isolates; strain SAU.447): 0.25 µg/mL (≈ 0.408 µM)
- MIC (MRSA clinical isolates; strain SAU.555): 0.25 µg/mL (≈ 0.408 µM)
- MIC (MRSA clinical isolates; strain SAU.846): 0.125 µg/mL (≈ 0.204 µM)

SMILES: Cc1cc(=O)[nH]c2c(O)c3c(cc12)c(C)cc(=O)n3C [compound 1]
- MIC [1, 6]: 2 µg/mL (≈ 7.4 µM)
- MIC ([2]; NRS3, read-out: MIC against S. aureus NRS3): 4 µg/mL (≈ 14.8 µM)

SMILES: CCc1cc(=O)n(C)c2c3c4c(cc12)c(C)cc(=O)n4CO3 [compound 4]
- MIC against S. aureus 29213 [1, 5]: 8 µg/mL (≈ 27 µM)
- MIC [1, 6]: 8 µg/mL (≈ 27 µM)
- MIC against S. aureus NRS3 [2, 7]: 0.25 µg/mL (≈ 0.844 µM)
- solubility at 1 h (physchem): 53 µM (≈ 15.7 µg/mL)

SMILES: Cc1cc(=O)n(C)c2c3c4c(cc12)c(C)cc(=O)n4C(C)O3 (stereo not drawn) [compound 5]
- MIC against S. aureus 29213 [1, 5]: 4 µg/mL (≈ 13.5 µM)
- MIC [1, 6]: 4 µg/mL (≈ 13.5 µM)

SMILES: CCCc1cc(=O)n2c3c(c4c(cc13)c(C)cc(=O)n4C)OC2 [compound 6]
- MIC against S. aureus 29213 [1, 5]: 16 µg/mL (≈ 51.6 µM)
- MIC [1, 6]: 16 µg/mL (≈ 51.6 µM)
- MIC against S. aureus NRS3 [2, 7]: 0.25 µg/mL (≈ 0.806 µM)

SMILES: CCCc1cc(=O)n(C)c2c3c4c(cc12)c(C)cc(=O)n4CO3 [compound 7]
- MIC against S. aureus 29213 [1, 5]: 16 µg/mL (≈ 51.6 µM)
- MIC [1, 6]: 16 µg/mL (≈ 51.6 µM)
- MIC against S. aureus NRS3 [2, 7]: 1 µg/mL (≈ 3.22 µM)

SMILES: CCCCCn1c(=O)cc(C)c2cc3c(C)cc(=O)n4c3c(c21)OC4 [compound 9]
- MIC against S. aureus 29213 [1, 5]: 32 µg/mL (≈ 94.6 µM)
- MIC [1, 6]: 32 µg/mL (≈ 94.6 µM)
- MIC against S. aureus NRS3 [2, 7]: 0.25 µg/mL (≈ 0.739 µM)

SMILES: CCCCCCn1c(=O)cc(C)c2cc3c(C)cc(=O)n4c3c(c21)OC4 [compound 10]
- MIC against S. aureus 29213 [1, 5]: > 64 µg/mL
- MIC [1, 6]: > 64 µg/mL
- MIC against S. aureus NRS3 [2, 7]: 1 µg/mL (≈ 2.84 µM)

SMILES: Cc1cc(=O)n2c3c(c4c(cc13)c(C)cc(=O)n4CC(C)C)OC2 [compound 11]
- MIC against S. aureus 29213 [1, 5]: > 32 µg/mL
- MIC [1, 6]: > 32 µg/mL
- MIC against S. aureus NRS3 [2, 7]: 2 µg/mL (≈ 6.17 µM)

SMILES: Cc1cc(=O)n2c3c(c4c(cc13)c(C)cc(=O)n4CC(C)(C)C)OC2 [compound 12]
- MIC against S. aureus 29213 [1, 5]: 32 µg/mL (≈ 94.6 µM)
- MIC [1, 6]: 32 µg/mL (≈ 94.6 µM)
- MIC against S. aureus NRS3 [2, 7]: 16 µg/mL (≈ 47.3 µM)

SMILES: CCc1cc(=O)n(C)c2c3c4c(cc12)c(CC)cc(=O)n4CO3 [compound 13]
- MIC against S. aureus 29213 [1, 5]: > 32 µg/mL
- MIC [1, 6]: > 32 µg/mL
- MIC against S. aureus NRS3 [2, 7]: 16 µg/mL (≈ 51.6 µM)
- solubility at 1 h (physchem): 48 ± 8 µM (≈ 14.9 µg/mL)

SMILES: CCCCn1c(=O)cc(CCC)c2cc3c(CCC)cc(=O)n4c3c(c21)OC4 [compound 15]
- MIC against S. aureus 29213 [1, 5]: > 32 µg/mL
- MIC [1, 6]: > 32 µg/mL
- MIC against S. aureus NRS3 [2, 7]: 32 µg/mL (≈ 84.1 µM)

SMILES: CCCCCCCCCC(=O)N[C@@H](Cc1c[nH]c2ccccc12)C(=O)N[C@H](CC(N)=O)C(=O)N[C@@H](CC(=O)O)C(=O)N[C@@H]1C(=O)NCC(=O)N[C@@H](CCCN)C(=O)N[C@@H](CC(=O)O)C(=O)N[C@H](C)C(=O)N[C@@H](CC(=O)O)C(=O)NCC(=O)N[C@H](CO)C(=O)N[C@@H]([C@H](C)CC(=O)O)C(=O)N[C@@H](CC(=O)c2ccccc2N)C(=O)O[C@@H]1C [daptomycin, reference compound]
- MIC [1, 6]: 2 µg/mL (≈ 1.23 µM)
- MIC against S. aureus NRS3 [2, 7]: 8 µg/mL (≈ 4.94 µM)
- MIC [2, 9]: 8 µg/mL (≈ 4.94 µM)

SMILES: CC(=O)NC[C@H]1CN(c2ccc(N3CCOCC3)c(F)c2)C(=O)O1 [linezolid, reference compound]
- MIC against S. aureus NRS3 [2, 7]: 0.5 µg/mL (≈ 1.48 µM)
- MIC [2, 9]: 0.5 µg/mL (≈ 1.48 µM)

SMILES: CN[C@H](CC(C)C)C(=O)N[C@H]1C(=O)N[C@@H](CC(N)=O)C(=O)N[C@H]2C(=O)N[C@H]3C(=O)N[C@H](C(=O)N[C@H](C(=O)O)c4cc(O)cc(O)c4-c4cc3ccc4O)[C@H](O)c3ccc(c(Cl)c3)Oc3cc2cc(c3O[C@@H]2O[C@H](CO)[C@@H](O)[C@H](O)[C@H]2O[C@H]2C[C@](C)(N)[C@H](O)[C@H](C)O2)Oc2ccc(cc2Cl)[C@H]1O [vancomycin, reference compound]
- MIC ([1]; ATCC29213, read-out: MIC against S. aureus 29213): 1 µg/mL (≈ 0.69 µM)
- MIC against S. aureus NRS3 [2, 7]: 8 µg/mL (≈ 5.52 µM)
- MIC [2, 9]: 8 µg/mL (≈ 5.52 µM)
- MIC (MRSA clinical isolates; strain SAU.1118): 2 µg/mL (≈ 1.38 µM)
- MIC (MRSA clinical isolates; strain SAU.2996): 1 µg/mL (≈ 0.69 µM)
- MIC (MRSA clinical isolates; strain SAU.3017): 1 µg/mL (≈ 0.69 µM)
- MIC (MRSA clinical isolates; strain SAU.3021): 1 µg/mL (≈ 0.69 µM)
- MIC (MRSA clinical isolates; strain SAU.3024): 2 µg/mL (≈ 1.38 µM)
- MIC (MRSA clinical isolates; strain SAU.419): 4 µg/mL (≈ 2.76 µM)
- MIC (MRSA clinical isolates; strain SAU.42): 1 µg/mL (≈ 0.69 µM)
- MIC (MRSA clinical isolates; strain SAU.446): 2 µg/mL (≈ 1.38 µM)
- MIC (MRSA clinical isolates; strain SAU.555): 1 µg/mL (≈ 0.69 µM)
- MIC (MRSA clinical isolates; strain SAU.846): 8 µg/mL (≈ 5.52 µM)
